From US20260068882A1, “ARTHROPOD CONTROLLING COMPOSITION” (Firmenich SA, priority 2019, published 2026)
Where two headings read alike, the source gives them in different places.

Test system: Ixodes ricinus
Experiment: In vitro Warm Plate Assay for ticks
Assay type: in vivo
Details: for pest or weed control at 0.00032 % / pest or weed control at 0.0016 % / pest or weed control at 0.008 % / pest or weed control at 0.04 % / pest or weed control at 0.2 % / pest or weed control at 1 %: Ixodes ricinus, read-out: percentage of ticks affected on the Warm Plate; for pest or weed control at 0.00032 %: 0.00032% (Table 10); for pest or weed control at 0.008 %: 0.008% (Table 10); for pest or weed control at 0.2 %: 0.2% (Table 10)
Procedure: Repellent efficacy of the different compounds was assessed against the sheep tick, Ixodes ricinus. I. ricinus is one of the recommended model organisms mentioned by the Guidance on the European Biological Products Regulation [Vol II, Efficacy-Assessment & Evaluation (Parts B+C), v. 3.0, April 2018]. Observations of repellent efficacy were made on last stage nymphs.
The repellent efficacy was assessed using the protocol of the in-vitro Warm Plate Assay as defined in Kröber T, Bourquin M, Guerin P M. A standardized in vivo and in vitro test method for evaluating tick repellents. Pesticide Biochemistry and Physiology. 2013; 107 (2): 160-168.].
The mean±SD number of ticks Ixodes ricinus walking down (affected), falling (affected) or walking-up (non affected) from the warm plate treated with ethanol, N,N-diethyl-3-methylbenzamide, (2,5-dimethyl-2,3-dihydro-1H-inden-2yl)methanol (Ingredient 2) or (2,4,6-trimethyl-2,3-dihydro-1H-inden-2-yl)methanol (Ingredient 1) diluted in ethanol at 0.4 mg/ml and 10 mg/mL was assessed on n groups of 12 ticks (n=2-5).
In this in-vitro assay, the percentage of ticks Ixodes ricinus affected by the stimulus loaded on the warm plate was measured in order to assess the repellency effect. Twelve ticks were assessed per concentrations that goes from 0.0016% up to 1% in ethanol.
Using the same in-vitro setup, the effect on ticks behavior (n≥12) of different stimuli diluted in ethanol at 20% (w/w) was assessed overtime.

`COC(C)OCC1(C)Cc2ccc(C)cc2C1` (stereo not drawn) [2-[(1-methoxyethoxy)methyl]-2,5-dimethylindane] was tested, and the pest or weed control at 0.00032 % was 8%, the pest or weed control at 0.0016 % (0.0016% (Table 10)) was 0% and the pest or weed control at 0.008 % was 21%. The pest or weed control at 0.04 % (0.04% (Table 10)) was 33%, the pest or weed control at 0.2 % was 64% and the pest or weed control at 1 % (1% (Table 10)) was 100%.

“(2,5-dimethyl-2-indanyl)methyl formate)methanol” was tested, and the “percentage of ticks affected on the Warm Plate” value (“percentage of ticks affected” below) (0.0016% (Table 11)) was 0%, the “percentage of ticks affected” value (0.04% (Table 11)) was 15% and the “percentage of ticks affected” value (1% (Table 11)) was 100%.

`COCOCC1(C)Cc2ccc(C)cc2C1` (stereo not drawn) [2-((methoxymethoxy)methyl)-2,5-dimethyl-2,3-dihydro-1H-indene] showed a pest or weed control at 0.00032 % of 0%, a pest or weed control at 0.0016 % (0.0016% (Table 10)) of 17% and a pest or weed control at 0.008 % of 0%. The pest or weed control at 0.04 % (0.04% (Table 10)) was 33%, the pest or weed control at 0.2 % was 54% and the pest or weed control at 1 % (1% (Table 10)) was 100%.

In the case of `CC1OC(C)C2Cc3ccccc3C2O1` (stereo not drawn) [ingredient #5, 2,4-dimethyl-4,4a,5,9b-tetrahydroindeno[1,2-d][1,3]dioxine], the “percentage of ticks being affected” value (0.00032% (Table 9)) is reported as 0%, the “percentage of ticks being affected” value (0.00071% (Table 9)) is reported as 0% and the “percentage of ticks being affected” value (0.0016% (Table 9)) is reported as 17%. For the same compound, the “percentage of ticks being affected” value (0.00357% (Table 9)) was 0%, the “percentage of ticks being affected” value (0.0053% (Table 9)) was 0% and the “percentage of ticks being affected” value (0.008% (Table 9)) was 0%. The “percentage of ticks being affected” value (0.0119% (Table 9)) was 0%, the “percentage of ticks being affected” value (0.0178% (Table 9)) was 8% and the “percentage of ticks being affected” value (0.0267% (Table 9)) was 0%. The “percentage of ticks being affected” value (0.04% (Table 9)) was 15%, the “percentage of ticks being affected” value (0.0598% (Table 9)) was 0% and the “percentage of ticks being affected” value (0.089% (Table 9)) was 7%. The “percentage of ticks being affected” value (0.2% (Table 9)) was 38%, the “percentage of ticks being affected” value (0.447% (Table 9)) was 71% and the “percentage of ticks being affected” value (1% (Table 9)) was 62%.

Work on `CC(C)(C)c1ccc2c(c1)CC1(COC1)C2` [5-(tert-butyl)-1,3-dihydrospiro[indene-2,3′-oxetane]] yielded a pest or weed control at 0.0016 % (0.0016% (Table 11)) of 0%, a pest or weed control at 0.04 % (0.04% (Table 11)) of 17% and a pest or weed control at 1 % (1% (Table 11)) of 86%.

For `CC(=O)OCC1(C)Cc2ccccc2C1` [(2-methyl-2,3-dihydro-1H-inden-2-yl)methyl acetate], the pest or weed control at 0.04 % (0.04% (Table 10)) was 25%, the pest or weed control at 0.2 % was 58% and the pest or weed control at 1 % (1% (Table 10)) was 100%.

`Cc1cc2c(cc1C)CC(C)(CO)C2` [(2,5,6-trimethyl-2,3-dihydro-1H-inden-2-yl)methanol] gave a pest or weed control at 0.0016 % (0.0016% (Table 11)) of 17%, a pest or weed control at 0.04 % (0.04% (Table 11)) of 38% and a pest or weed control at 1 % (1% (Table 11)) of 77%.

`COC(=O)C1(C)Cc2ccc(C)cc2C1` (racemic) [(+−)-methyl 2,5-dimethyl-2,3-dihydro-1H-indene-2-carboxylate] showed a pest or weed control at 0.0016 % (0.0016% (Table 11)) of 7%, a pest or weed control at 0.04 % (0.04% (Table 11)) of 18% and a pest or weed control at 1 % (1% (Table 11)) of 100%.
